# Measurements reported in patent US6083741A, “Internalisation of DNA, using conjugates of poly-l-lysine and an integrin receptor ligand” (Imperial College of Science Technology and Medicine, priority 1994, dated 2000).
# How the values were obtained:
# COS-7 cells = experiment: Luciferase reporter gene transfection of COS-7 cells; format: cell-based; details: 200 μm chloroquine
# Procedure: (§1) 5 μg of a luciferase reporter gene plasmid (pGL2 promega) was complexed with either the RGD-polylysine construct (possible structure of complex is shown in FIG. 1) or an equal concentration of polylysine in 100 μl of Optimem media (Gibco). The DNA/peptide complexes and also a DNA only control were then applied to 50% confluent cultured (Caco-2) colonic epithelial cells which were then allowed to express for 48 hours. The cells were then harvested and the cellular protein analysed for luciferase activity (Relative Light Units). The activity shown in FIG. 2 is adjusted to represent activity from 1 mg of cellular protein. In FIG. 2 the term "RGD peptide" is used to indicate the polylysine-integrin receptor binding protein described in Example 1.
# The polylysine-integrin receptor binding peptide of Example 1 was again used. Essentially the methodology of Example 2 was followed with the substitution of COS-7 cells, and the use of different concentrations of chloroquine. It can be seen that 200 μm chloroquine gave a 4-fold increase of expression, compared with no chloroquine.
# The methodology of Example 2 was repeated using COS-7 cells. In this experiment, different ratios of the K16 RGD peptide DNA were used with and without 100 μm chloroquine, with the results shown in FIG. 7. It can be seen that the optimum ratio was 37.5:1 in both the absence and presence of chloroquine.
# [1] = system: (Caco-2) colonic epithelial cells; experiment: Luciferase reporter gene (pGL2) internalisation and expression in Caco-2 cells; format: cell-based; details: 5 μg pGL2 plasmid
# Procedure: as §1
# The procedure described in Example 2 was repeated but using the polylysine-integrin receptor binding peptide described in Example 3 instead of the polylysine-integrin receptor binding peptide described in Example 1. Control experiments were also performed.
# The polylysine-integrin receptor binding peptide of Example 1 was used in a repeat of the procedure of Example 2, but using 1 μg of luciferase reporter gene plasmid. The effect of chloroquine was also investigated.
Compound,cytopathic effects (COS-7 cells),improvement of expression by addition of chloroquine ([1]; 100 μM chloroquine vs no chloroquine) [fold],"optimal peptide-DNA transfection efficiency (luciferase activity, Relative Light Units per mg cellular protein) ([1]; absence of chloroquine, 48 hours expression, indirect comparison of FIG. 2 and FIG. 3)"
CCN(CC)CCCC(C)Nc1ccnc2cc(Cl)ccc12 (stereo not drawn) [chloroquine],cytopathic effects of chloroquine were apparent,–,–
(K)16 GGCRGDMFGCA [Example 3],–,~2,~6×10^7 RLU/mg
